{"source": "ChEMBL document CHEMBL4602659", "about": "“β,β-Dimethylacrylshikonin Induces Apoptosis in Melanoma Cell Lines by NOXA Upregulation” (J Nat Prod, 2020)", "key": {"WM793 [1]": {"system": "WM793", "assay": "Induction of apoptosis in human WM793 cells assessed as early apoptotic cells at IC50 concentration after 6 hrs by Annexin V/SYTOX Green based flow cytometric analysis (reference value: 2.77%)", "format": "functional"}, "SBcl2 [2]": {"system": "SBcl2", "assay": "Induction of apoptosis in human SBcl2 cells assessed as effect on BAD mRNA expression at IC50 concentration after 6 to 24 hrs by RT-qPCR analysis", "format": "functional, cell-based"}, "WM164 [3]": {"system": "WM164", "assay": "Induction of apoptosis in human WM164 cells treated with scrambled si-RNA assessed as caspase -activity at IC50 concentration after 24 hrs by Western blot analysis", "format": "functional, cell-based"}, "WM793 [4]": {"system": "WM793", "assay": "Induction of apoptosis in human WM793 cells assessed as up regulation of NOXA protein expression at IC50 concentration after 24 hrs by Western blot analysis", "format": "functional, cell-based"}, "B16-F0 [5]": {"system": "B16-F0", "assay": "Cytotoxicity against mouse B16F0 cells assessed as reduction in cell viability after 48 hrs by MTT assay", "format": "functional, cell-based", "settings": "B16F0, 48 h"}, "SBcl2 [6]": {"system": "SBcl2", "assay": "Induction of apoptosis in human SBcl2 cells assessed as up regulation of BCL2 at IC50 concentration after 6 to 24 hrs by RT-qPCR analysis", "format": "functional, cell-based"}, "MUGMel1 [7]": {"system": "MUGMel1", "assay": "Induction of apoptosis in human MUGMel1 cells assessed as effect on BAD protein expression at IC50 concentration after 24 hrs by Western blot analysis", "format": "functional, cell-based"}, "WM793 [8]": {"system": "WM793", "assay": "Induction of apoptosis in human WM793 cells assessed as effect on BAX protein expression at IC50 concentration after 24 hrs by Western blot analysis", "format": "functional, cell-based"}, "SBcl2 [9]": {"system": "SBcl2", "assay": "Induction of apoptosis in human SBcl2 cells assessed as viable cells at IC50 concentration after 24 hrs by Annexin V/SYTOX Green based flow cytometric analysis (reference value: 73.08%)", "format": "functional"}, "WM164 [10]": {"system": "WM164", "assay": "Induction of apoptosis in human WM164 cells assessed as late apoptotic cells at IC50 concentration after 6 hrs by Annexin V/SYTOX Green based flow cytometric analysis (reference value: 1.41%)", "format": "functional"}, "MRC5": {"system": "MRC5", "assay": "Cytotoxicity against human MRC5 cells assessed as reduction in cell viability after 72 hrs by EZ4U reagent based spectrophotometric method", "format": "functional"}, "SBcl2 [11]": {"system": "SBcl2", "assay": "Antitumour activity against human SBcl2 cells xenografted in NU(NCr)-Foxn1 mouse assessed as increase in necrotic cells at 2 ug/g administered for three consecutive days with 1 day interval for four cycle by hematoxylin and eosin staining based microscopic analysis", "format": "functional"}, "MUGMel2 [12]": {"system": "MUGMel2", "assay": "Cytotoxicity against human MUGMel2 cells harboring NRAS pQ61K mutant assessed as reduction in cell viability after 48 hrs by EZ4U reagent based spectrophotometric method", "format": "functional", "settings": "MUGMel2, 48 h"}, "WM164 [13]": {"system": "WM164", "assay": "Cytotoxicity against human WM164 cells harboring BRAF V600E mutant assessed as reduction in cell viability after 72 hrs by EZ4U reagent based spectrophotometric method", "format": "functional", "settings": "WM164, 72 h"}, "MUGMel2 [14]": {"system": "MUGMel2", "assay": "Induction of apoptosis in human MUGMel2 cells assessed as viable cells at IC50 concentration after 24 hrs by Annexin V/SYTOX Green based flow cytometric analysis (reference value: 85.95%)", "format": "functional"}, "MUGMel2 [15]": {"system": "MUGMel2", "assay": "Induction of apoptosis in human MUGMel2 cells assessed as viable cells at IC50 concentration after 6 hrs by Annexin V/SYTOX Green based flow cytometric analysis (reference value: 91.12%)", "format": "functional"}, "MUGMel1 [16]": {"system": "MUGMel1", "assay": "Induction of apoptosis in human MUGMel1 cells assessed as early apoptotic cells at IC50 concentration after 24 hrs by Annexin V/SYTOX Green based flow cytometric analysis (reference value: 3.27%)", "format": "functional"}, "MUGMel2 [17]": {"system": "MUGMel2", "assay": "Induction of apoptosis in human MUGMel2 cells assessed as early apoptotic cells at IC50 concentration after 24 hrs by Annexin V/SYTOX Green based flow cytometric analysis (reference value: 3.31%)", "format": "functional"}, "WM164 [18]": {"system": "WM164", "assay": "Induction of apoptosis in human WM164 cells assessed as up regulation of PMAIP1 at IC50 concentration after 24 hrs by mRNA sequencing method relative to control", "format": "functional"}, "WM793 [19]": {"system": "WM793", "assay": "Induction of apoptosis in human WM793 cells assessed as effect on PUMA protein expression at IC50 concentration after 24 hrs by Western blot analysis", "format": "functional, cell-based"}, "WM793 [20]": {"system": "WM793", "assay": "Induction of apoptosis in human WM793 cells assessed as viable cells at IC50 concentration after 6 hrs by Annexin V/SYTOX Green based flow cytometric analysis (reference value: 96.2%)", "format": "functional"}, "MUGMel1 [21]": {"system": "MUGMel1", "assay": "Induction of apoptosis in human MUGMel1 cells assessed as necrotic cells at IC50 concentration after 24 hrs by Annexin V/SYTOX Green based flow cytometric analysis (reference value: 0.42%)", "format": "functional"}, "WM164 [22]": {"system": "WM164", "assay": "Induction of apoptosis in human WM164 cells assessed as effect on BAD mRNA expression at IC50 concentration after 6 to 24 hrs by RT-qPCR analysis", "format": "functional, cell-based"}, "SBcl2 [23]": {"system": "SBcl2", "assay": "Antitumour activity against human SBcl2 cells xenografted in NU(NCr)-Foxn1 mouse assessed as increase in caspase -activity at 2 ug/g administered for three consecutive days with 1 day interval for four cycle by hematoxylin and eosin staining based microscopic analysis", "format": "functional, cell-based"}, "B16-F0 [24]": {"system": "B16-F0", "assay": "Cytotoxicity against mouse B16F0 cells assessed as reduction in cell viability after 24 hrs by MTT assay", "format": "functional, cell-based", "settings": "B16F0, 24 h"}, "SBcl2 [25]": {"system": "SBcl2", "assay": "Antitumour activity against human SBcl2 cells xenografted in NU(NCr)-Foxn1 mouse assessed as increase in fibrosis at 2 ug/g administered for three consecutive days with 1 day interval for four cycle by hematoxylin and eosin staining based microscopic analysis", "format": "functional, cell-based"}, "WM164 [26]": {"system": "WM164", "assay": "Induction of apoptosis in human WM164 cells assessed as viable cells at IC50 concentration after 24 hrs by Annexin V/SYTOX Green based flow cytometric analysis (reference value: 94.62%)", "format": "functional"}, "MUGMel2 [27]": {"system": "MUGMel2", "assay": "Induction of apoptosis in human MUGMel2 cells assessed as increase in caspase -3 activity at IC50 concentration after 24 hrs by Alexa Fluor 647 antibody based flow cytometric analysis", "format": "functional, cell-based"}, "MUGMel1 [28]": {"system": "MUGMel1", "assay": "Induction of cell cycle arrest in human MUGMel1 cells assessed as increase in S phase at IC50 concentration after 24 to 48 hrs by propidium iodide staining based flow cytometric analysis", "format": "functional"}, "MUGMel2 [29]": {"system": "MUGMel2", "assay": "Induction of apoptosis in human MUGMel2 cells assessed as effect on BAD protein expression at IC50 concentration after 24 hrs by Western blot analysis", "format": "functional, cell-based"}, "MUGMel1 [30]": {"system": "MUGMel1", "assay": "Induction of apoptosis in human MUGMel1 cells assessed as up regulation of NOXA at IC50 concentration after 6 to 24 hrs by RT-qPCR analysis relative to control", "format": "functional"}, "WM164 [31]": {"system": "WM164", "assay": "Antitumour activity against human WM164 cells xenografted in NU(NCr)-Foxn1 mouse assessed as increase in fibrosis at 1 to 4 ug/g administered for three consecutive days with 1 day interval for four cycle by hematoxylin and eosin staining based microscopic analysis", "format": "functional, cell-based"}, "[32]": {"assay": "Toxicity in NU(NCr)-Foxn1 mouse xenografted with WM164 assessed as weight loss at 1 to 4 ug/g administered for three consecutive days with 1 day interval for four cycle", "settings": "in vivo"}, "WM793 [33]": {"system": "WM793", "assay": "Cytotoxicity against human WM793 cells harboring BRAF V600E mutant assessed as reduction in cell viability after 24 hrs by EZ4U reagent based spectrophotometric method", "format": "functional", "settings": "WM793, 24 h"}, "SBcl2 [34]": {"system": "SBcl2", "assay": "Induction of apoptosis in human SBcl2 cells assessed as effect on PUMA protein expression at IC50 concentration after 24 hrs by Western blot analysis", "format": "functional, cell-based"}}, "note": "The source made the active and inactive calls. The calls are words filed in the database; no cut-off is given here.", "data": [{"smiles": "CC(C)=CC[C@@H](OC(=O)C=C(C)C)C1=CC(=O)c2c(O)ccc(O)c2C1=O", "note": "[DIMETHYLACRYLSHIKONIN]", "values": [{"measurement": "Activity", "setting": "WM793 [1]", "value": 8.45, "unit": "%"}, {"measurement": "Activity", "setting": "SBcl2 [2]", "value": "inactive"}, {"measurement": "Activity", "setting": "WM164 [3]", "value": "inactive"}, {"measurement": "Activity", "setting": "WM793 [4]", "value": "inactive"}, {"measurement": "IC50", "setting": "B16-F0 [5]", "value": "1.2 to 5.1", "unit": "µM"}, {"measurement": "Activity", "setting": "SBcl2 [6]", "value": "Active"}, {"measurement": "Activity", "setting": "MUGMel1 [7]", "value": "inactive"}, {"measurement": "Activity", "setting": "WM793 [8]", "value": "inactive"}, {"measurement": "Activity", "setting": "SBcl2 [9]", "value": 8.43, "unit": "%"}, {"measurement": "Activity", "setting": "WM164 [10]", "value": 8.65, "unit": "%"}, {"measurement": "IC50", "setting": "MRC5", "value": "Not Active"}, {"measurement": "Activity", "setting": "SBcl2 [11]", "value": 50, "unit": "%"}, {"measurement": "IC50", "setting": "MUGMel2 [12]", "value": 2.3, "unit": "µM"}, {"measurement": "IC50", "setting": "WM164 [13]", "value": 2.4, "unit": "µM"}, {"measurement": "Activity", "setting": "MUGMel2 [14]", "value": 45.04, "unit": "%"}, {"measurement": "Activity", "setting": "MUGMel2 [15]", "value": 75.52, "unit": "%"}, {"measurement": "Activity", "setting": "MUGMel1 [16]", "value": 40.28, "unit": "%"}, {"measurement": "Activity", "setting": "MUGMel2 [17]", "value": 10.92, "unit": "%"}, {"measurement": "fold change (FC)", "setting": "WM164 [18]", "value": 1.6}, {"measurement": "Activity", "setting": "WM793 [19]", "value": "inactive"}, {"measurement": "Activity", "setting": "WM793 [20]", "value": 88.54, "unit": "%"}, {"measurement": "Activity", "setting": "MUGMel1 [21]", "value": 0.15, "unit": "%"}, {"measurement": "Activity", "setting": "WM164 [22]", "value": "inactive"}, {"measurement": "Activity", "setting": "SBcl2 [23]", "value": "Active"}, {"measurement": "IC50", "setting": "B16-F0 [24]", "value": "1.2 to 5.1", "unit": "µM"}, {"measurement": "Activity", "setting": "SBcl2 [25]", "value": "Active"}, {"measurement": "Activity", "setting": "WM164 [26]", "value": 75.03, "unit": "%"}, {"measurement": "Activity", "setting": "MUGMel2 [27]", "value": "Active"}, {"measurement": "Activity", "setting": "MUGMel1 [28]", "value": "Active"}, {"measurement": "Activity", "setting": "MUGMel2 [29]", "value": "inactive"}, {"measurement": "fold change (FC)", "setting": "MUGMel1 [30]", "value": 2.4}, {"measurement": "Activity", "setting": "WM164 [31]", "value": "Active"}, {"measurement": "Activity", "setting": "[32]", "value": "Non-Toxic"}, {"measurement": "IC50", "setting": "WM793 [33]", "value": 1.2, "unit": "µM"}, {"measurement": "Activity", "setting": "SBcl2 [34]", "value": "inactive"}]}]}
